Data: the NIST ThermoML archive (doi:10.1021/je100362p)

How the values were obtained:
[1] = xn = mol fraction of the nth substance listed; details: 101 kPa, Liquid; for speed of sound: Sing-around technique in a fixed-path interferometer
[2] = refractive index (Na D-line) (dimensionless); xn = mol fraction of the nth substance listed; details: 101 kPa, Liquid, Standard Abbe refractometry

Cc1ccc(O)cc1 [4-methylphenol] + CCCCCCCCCCO
Details	mass density, 298.15 K [kg/m3]	mass density, 303.15 K [kg/m3]	mass density, 308.15 K [kg/m3]	refractive index, 298.15 K	refractive index, 303.15 K	refractive index, 308.15 K	speed of sound, 298.15 K [m/s]	speed of sound, 303.15 K [m/s]	speed of sound, 308.15 K [m/s]
[1], x1 = 0.079	836.102	832.641	829.175	–	–	–	1384.9	1367.8	1350.9
[1], x1 = 0.1424	844.261	840.772	837.278	–	–	–	1389	1371.9	1355.1
[1], x1 = 0.2213	855.053	851.531	847.999	–	–	–	1394	1376.9	1360
[1], x1 = 0.2915	865.315	861.764	858.196	–	–	–	1398.6	1381.6	1364.7
[1], x1 = 0.3611	876.182	872.603	869.001	–	–	–	1403.5	1386.4	1369.6
[1], x1 = 0.418	885.652	882.051	878.417	–	–	–	1407.7	1390.8	1373.9
[1], x1 = 0.4915	898.718	895.088	891.418	–	–	–	1413.7	1396.8	1379.9
[1], x1 = 0.5566	911.201	907.546	903.844	–	–	–	1419.6	1402.7	1385.9
[1], x1 = 0.6321	926.903	923.218	919.477	–	–	–	1427.5	1410.7	1394
[1], x1 = 0.7041	943.248	939.531	935.758	–	–	–	1436.1	1419.4	1402.8
[1], x1 = 0.7628	957.751	954.009	950.207	–	–	–	1444	1427.3	1411
[1], x1 = 0.8229	973.785	970.012	966.196	–	–	–	1453.2	1436.7	1420.2
[1], x1 = 0.8793	990.126	986.325	982.485	–	–	–	1462.3	1446.2	1429.9
[1], x1 = 0.9382	1008.68	1004.85	1000.99	–	–	–	1474.2	1458	1442.4
[1], x1 = 1	1030.14	1026.28	1022.38	–	–	–	1486.4	1470.7	1455
[2], x1 = 0.079	–	–	–	1.43878	1.43659	1.43439	–	–	–
[2], x1 = 0.1424	–	–	–	1.44253	1.44025	1.43792	–	–	–
[2], x1 = 0.2213	–	–	–	1.44759	1.44524	1.44279	–	–	–
[2], x1 = 0.2915	–	–	–	1.45252	1.45006	1.44748	–	–	–
[2], x1 = 0.3611	–	–	–	1.45786	1.45529	1.45263	–	–	–
[2], x1 = 0.418	–	–	–	1.46259	1.45994	1.45719	–	–	–
[2], x1 = 0.4915	–	–	–	1.46921	1.46649	1.46363	–	–	–
[2], x1 = 0.5566	–	–	–	1.47562	1.47279	1.46987	–	–	–
[2], x1 = 0.6321	–	–	–	1.48379	1.48088	1.47785	–	–	–
[2], x1 = 0.7041	–	–	–	1.49234	1.48935	1.48629	–	–	–
[2], x1 = 0.7628	–	–	–	1.49988	1.49689	1.49381	–	–	–
[2], x1 = 0.8229	–	–	–	1.50829	1.50524	1.50212	–	–	–
[2], x1 = 0.8793	–	–	–	1.51677	1.51369	1.51055	–	–	–
[2], x1 = 0.9382	–	–	–	1.52626	1.52321	1.52011	–	–	–
[2], x1 = 1	–	–	–	1.537	1.534	1.531	–	–	–

Cc1cccc(O)c1 [3-methylphenol] + CCCCCCCCCCO
Details	mass density, 298.15 K [kg/m3]	mass density, 303.15 K [kg/m3]	mass density, 308.15 K [kg/m3]	refractive index, 298.15 K	refractive index, 303.15 K	refractive index, 308.15 K	speed of sound, 298.15 K [m/s]	speed of sound, 303.15 K [m/s]	speed of sound, 308.15 K [m/s]
[1], x1 = 0.0818	836.406	832.948	829.481	–	–	–	1384.4	1367.3	1350.5
[1], x1 = 0.1443	844.417	840.933	837.44	–	–	–	1388.1	1371	1354.3
[1], x1 = 0.2191	854.601	851.084	847.557	–	–	–	1392.5	1375.5	1358.6
[1], x1 = 0.27	861.935	858.394	854.842	–	–	–	1395.7	1378.5	1361.8
[1], x1 = 0.3513	874.407	870.825	867.235	–	–	–	1400.5	1383.7	1366.8
[1], x1 = 0.4154	884.964	881.35	877.727	–	–	–	1404.8	1388	1371.2
[1], x1 = 0.4864	897.533	893.881	890.219	–	–	–	1410.1	1393.4	1376.6
[1], x1 = 0.5447	908.582	904.899	901.205	–	–	–	1415.1	1398.3	1381.5
[1], x1 = 0.6205	924.111	920.384	916.647	–	–	–	1422.3	1405.6	1388.9
[1], x1 = 0.6951	940.809	937.04	933.259	–	–	–	1430.7	1414	1397.5
[1], x1 = 0.7472	953.452	949.651	945.837	–	–	–	1437.2	1420.7	1404.4
[1], x1 = 0.8163	971.635	967.793	963.936	–	–	–	1447.3	1431.1	1414.8
[1], x1 = 0.8738	988.185	984.309	980.414	–	–	–	1457.3	1441	1424.9
[1], x1 = 0.9325	1006.6	1002.69	998.753	–	–	–	1468.8	1452.8	1436.8
[1], x1 = 1	1030.05	1026.09	1022.12	–	–	–	1480.9	1465.2	1449.6
[2], x1 = 0.0818	–	–	–	1.43899	1.43686	1.43464	–	–	–
[2], x1 = 0.1443	–	–	–	1.44269	1.44048	1.43816	–	–	–
[2], x1 = 0.2191	–	–	–	1.44749	1.44514	1.44269	–	–	–
[2], x1 = 0.27	–	–	–	1.45104	1.44858	1.44602	–	–	–
[2], x1 = 0.3513	–	–	–	1.45712	1.45453	1.45183	–	–	–
[2], x1 = 0.4154	–	–	–	1.46234	1.45965	1.45687	–	–	–
[2], x1 = 0.4864	–	–	–	1.46869	1.46584	1.46299	–	–	–
[2], x1 = 0.5447	–	–	–	1.47429	1.47138	1.46848	–	–	–
[2], x1 = 0.6205	–	–	–	1.48226	1.47932	1.47636	–	–	–
[2], x1 = 0.6951	–	–	–	1.49092	1.48799	1.48499	–	–	–
[2], x1 = 0.7472	–	–	–	1.49755	1.49459	1.49161	–	–	–
[2], x1 = 0.8163	–	–	–	1.50709	1.50419	1.50126	–	–	–
[2], x1 = 0.8738	–	–	–	1.51581	1.51296	1.51007	–	–	–
[2], x1 = 0.9325	–	–	–	1.5256	1.52274	1.51982	–	–	–
[2], x1 = 1	–	–	–	1.538	1.535	1.532	–	–	–
